The subject of one series is Botrytis cinerea. In words: Test A: preventive spray on tomato seedlings, Botrytis cinerea (gray mold), visual disease rating. Conditions: 100 = 100% disease control, 0 = no control relative to controls, unmarked values; for pest or weed control at 40 µg/mL, 160 g/ha: 96 h. Type of series: in vivo. In outline: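 Tomato seedlings sprayed to run-off with 40 ppm or 10 ppm suspensions (160 or 40 g ai/ha) in acetone/water with 250 ppm surfactant. Inoculated with B. cinerea spores next day, held saturated at 20 °C for 48 h, then 27 °C for 2 days. Visual rating, 0–100% disease control relative to controls.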

Series [1] relates to Stagonospora nodorum (also known as Septoria nodorum). The series is described as follows: Test B: preventive spray on wheat seedlings, Stagonospora nodorum (wheat glume blotch), visual disease rating. Type of series: in vivo. The following applies: 100 = 100% disease control, 0 = no control, unmarked values. In outline: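 Compounds in acetone/water (50/50) with 250 ppm Trem 014 surfactant were sprayed to run-off at 40 ppm (160 g ai/ha) or 10 ppm (40 g ai/ha). Seedlings were inoculated with S. nodorum spores the next day, then held 48 h saturated at 20 °C and 6 days in a growth chamber at 20 °C. Visual rating as % disease control vs untreated.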

The next series deals with Septoria tritici. In words: Test C: preventive spray on wheat seedlings, Septoria tritici (wheat leaf blotch), visual disease rating. The format is in vivo. The following applies: 100 = 100% disease control, 0 = no control, unmarked values. In outline: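 Wheat seedlings sprayed to run-off at 40 ppm or 10 ppm (160 or 40 g ai/ha) in acetone/water with surfactant, inoculated with Septoria tritici spores next day. Held 48 h saturated at 24 °C, then 21 days at 20 °C. Visual rating scored as % disease control relative to controls.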

For series [2], the system named is Puccinia recondite f. sp. tritici. The series is described as follows: Test D: preventive spray on wheat seedlings, Puccinia recondite f. sp. tritici (wheat leaf rust), visual disease rating. The format is in vivo. Conditions: 100 = 100% disease control, 0 = no control, unmarked values. In outline:
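Wheat seedlings sprayed to run-off with 40 ppm (160 g ai/ha) or 10 ppm (40 g ai/ha) suspension in acetone/water with 250 ppm surfactant, inoculated next day with leaf rust spores. After 24 h saturated at 20 °C then 6 days at 20 °C, visual rating of disease control (0–100) relative to controls.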

For series [3], the system named is Erysiphe graminis f. sp. tritici. In words: Test E: preventive spray on wheat seedlings, Erysiphe graminis f. sp. tritici (wheat powdery mildew), visual disease rating. The following applies: 100 = 100% disease control, 0 = no control, unmarked values. Type of series: in vivo. In short, it runs like this: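 Wheat seedlings were sprayed to run-off with 40 or 10 ppm suspension (160 or 40 g ai/ha) and dusted with spores the next day. They were then kept 8 days at 20 °C. Disease was rated visually as % control relative to untreated controls (0–100).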

For `O=C(Nc1ccccc1-c1cnc(-n2ccc(C(F)(F)F)n2)cn1)c1ccccc1C(F)(F)F` [Compound 1, 2-(trifluoromethyl)-N-[2-[5-[3-(trifluoromethyl)-1H-pyrazol-1-yl]-2-pyrazinyl]phenyl]benzamide], the melting point is 180 to 182 °C. In the series with Botrytis cinerea, this compound showed a pest or weed control at 40 µg/mL, 160 g/ha of 27%.

As for `Cn1cc(C(=O)Nc2ccccc2-c2cnc(-n3ccc(C(F)(F)F)n3)cn2)c(C(F)F)n1` [Compound 2, 3-(difluoromethyl)-1-methyl-N-[2-[5-[3-(trifluoromethyl)-1H-pyrazol-1-yl]-2-pyrazinyl]phenyl]-1H-pyrazole-4-carboxamide], the melting point was 207 to 209 °C. For the same compound, the pest or weed control at 40 µg/mL, 160 g/ha in the series with Botrytis cinerea was determined as 15%.

In turn, `Cn1cc(C(=O)Nc2ccccc2-c2ccc(-n3ccc(C(F)(F)F)n3)nc2)c(C(F)F)n1` [Compound 51, 3-(difluoromethyl)-N-[2-[6-[3-(trifluoromethyl)-1H-pyrazol-1-yl]-3-pyridinyl]phenyl]-1-methyl-1H-pyrazole-4-carboxamide] had a melting point of 157 to 159 °C. Further, the pest or weed control at 40 µg/mL, 160 g/ha in the series on Botrytis cinerea was determined as 97%.

Turning to `Cn1cc(C(=O)Nc2ccccc2-c2ccc(-n3ccc(-c4cccc(F)c4)n3)nc2)c(C(F)F)n1` [compound 87], in the series on Botrytis cinerea, the “Test A disease control rating” value stood at 99%. The “Test B disease control rating” value in series [1] is on record as 0%. In addition, the “Test C disease control rating” value in the series with Septoria tritici is listed as 97%. The “Test D disease control rating” value in series [2] is on record as 100%. Also, the “Test E disease control rating” value in series [3] was 64%.

`COc1ccc(-c2ccn(-c3ccc(-c4ccccc4NC(=O)c4cn(C)nc4C(F)F)cn3)n2)cc1` [compound 88]: the “Test A disease control rating” value in the series with Botrytis cinerea came to 100%. Moreover, the “Test B disease control rating” value in series [1] is 0%. Also, in the series on Septoria tritici, the “Test C disease control rating” value was determined as 51%. For the same compound, in series [2], the “Test D disease control rating” value is reported as 100%. In series [3], the “Test E disease control rating” value is on record as 93%.

For `COc1ccccc1-c1ccn(-c2ccc(-c3ccccc3NC(=O)c3cn(C)nc3C(F)F)cn2)n1` [compound 98], in the series on Botrytis cinerea, the “Test A disease control rating” value turned out to be 67%. Also, the “Test B disease control rating” value in series [1] worked out at 0%. Besides, in the series with Septoria tritici, the “Test C disease control rating” value is 75%. The “Test D disease control rating” value in series [2] is 100%. Moreover, the “Test E disease control rating” value in series [3] came out at 48%.

For the compound `Cn1cc(C(=O)Nc2ccccc2-c2ccc(-n3ccc(-c4ccc(F)cc4)n3)nc2)c(C(F)F)n1` [compound 99], the “Test A disease control rating” value with Botrytis cinerea turned out to be 89%. The “Test B disease control rating” value in series [1] is reported as 0%. Also, the “Test C disease control rating” value in the series with Septoria tritici worked out at 90%. Besides, the “Test D disease control rating” value in series [2] is 100%. For the same compound, the “Test E disease control rating” value in series [3] is reported as 91%.

Take `COc1ccc(-c2ccn(-c3ccc(-c4ccccc4NC(=O)c4cn(C)nc4C(F)F)cn3)n2)c(OC)c1` [compound 100]: the “Test A disease control rating” value with Botrytis cinerea was found to be 58%. Further, in series [1], the “Test B disease control rating” value was 60%. For the same compound, the “Test C disease control rating” value with Septoria tritici was determined as 87%. Moreover, in series [2], the “Test D disease control rating” value turned out to be 100%. For the same compound, the “Test E disease control rating” value in series [3] was determined as 69%.

For the compound `Cn1cc(C(=O)Nc2ccccc2-c2ccc(-n3ccc(-c4ccc(F)cc4F)n3)nc2)c(C(F)F)n1` [compound 101], the “Test A disease control rating” value with Botrytis cinerea is reported as 71%. Besides, in series [1], the “Test B disease control rating” value is given as 60%. In addition, the “Test C disease control rating” value in the series on Septoria tritici came out at 94%. In addition, in series [2], the “Test D disease control rating” value came to 100%. For the same compound, the “Test E disease control rating” value in series [3] is reported as 92%.

For the compound “N-[2-[5-fluoro-6-[3-(trifluoromethyl)-1H-pyrazol-1-yl]-3-pyridinyl]phenyl]-3-(trifluoromethyl)-2-pyridinecarboxamide [Compound 50]”, the “Test A disease control rating” value with Botrytis cinerea stood at 99%. The “Test B disease control rating” value in series [1] was 100%. Also, the “Test C disease control rating” value with Septoria tritici is on record as 100%. In series [2], the “Test D disease control rating” value was found to be 100%. In series [3], the “Test E disease control rating” value came to 100%.

One may read the pest or weed control as the degree to which the test organism was suppressed or injured, in per cent. Higher therefore signals a strong effect. As usually defined, the melting point is the temperature of the solid-liquid transition.

The values above are taken from US9730447B2, “Fungicidal amides” (E I DU PONT DE NEMOURS AND COMPANY, priority 2013, dated 2017).
